Here are results for 23 compounds from ChEMBL document CHEMBL5380857, “Discovery of Potent, Selective, and Orally Bioavailable Small-Molecule Inhibitors of CDK8 for the Treatment of Cancer” (J Med Chem, 2023).

pIC50, pKd: −log10 of the molar value.

The nature of data set [1]: Metabolic stability in mouse liver microsomes assessed as intrinsic clearance at 1 uM preincubated for 10 mins followed by NADPH addition and measured for 60 mins by LC-MS/MS analysis. Type of data set: ADME, Microsome. Particulars: read-out: CLH.
Data set [2] is described as follows: Metabolic stability in human liver microsomes assessed as intrinsic clearance at 1 uM preincubated for 10 mins followed by NADPH addition and measured for 60 mins by LC-MS/MS analysis. It counts as ADME, Microsome. Conditions: read-out: CLH.
The target in the next data set is CDK8/Cyclin C (Homo sapiens, UniProt P49336). Briefly: Inhibition of His tagged human recombinant CDK8/Cyclin C expressed in baculovirus expression system incubated for 15 mins by FRET-based LanthaScreen binding competition assay.
CDK8/Cyclin C, sequence (P49336 whole entry): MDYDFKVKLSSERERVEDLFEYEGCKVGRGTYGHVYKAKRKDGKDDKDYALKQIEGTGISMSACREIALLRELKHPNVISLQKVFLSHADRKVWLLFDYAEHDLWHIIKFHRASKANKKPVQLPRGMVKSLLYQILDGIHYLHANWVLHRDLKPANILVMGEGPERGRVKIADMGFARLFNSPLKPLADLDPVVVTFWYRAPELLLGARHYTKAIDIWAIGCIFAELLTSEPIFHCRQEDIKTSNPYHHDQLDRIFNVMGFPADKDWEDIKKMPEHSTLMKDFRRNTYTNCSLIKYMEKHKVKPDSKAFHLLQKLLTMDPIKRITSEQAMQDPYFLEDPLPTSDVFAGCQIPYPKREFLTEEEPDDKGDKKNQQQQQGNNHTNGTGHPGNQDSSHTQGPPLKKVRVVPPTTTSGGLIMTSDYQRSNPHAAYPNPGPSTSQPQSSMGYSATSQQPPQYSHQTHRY
CDK8/Cyclin C, sequence (P24863 whole entry, further chain): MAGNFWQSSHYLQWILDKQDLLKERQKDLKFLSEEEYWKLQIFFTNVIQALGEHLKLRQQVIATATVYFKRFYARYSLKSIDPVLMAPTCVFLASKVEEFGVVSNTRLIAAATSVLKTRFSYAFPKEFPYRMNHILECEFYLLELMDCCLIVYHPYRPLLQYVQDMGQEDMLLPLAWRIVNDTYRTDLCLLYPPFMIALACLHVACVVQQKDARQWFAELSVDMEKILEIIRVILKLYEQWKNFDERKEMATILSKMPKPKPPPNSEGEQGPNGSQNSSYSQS
For data set [3], the system named is MV4-11. The experiment in a line: Antiproliferative activity against human MV4-11 cells assessed as inhibition of cell growth incubated for 10 days and replacement with fresh media with compounds on day 5 by CTG assay. It counts as functional, cell-based.
The nature of data set [4]: Metabolic stability in rat liver microsomes assessed as intrinsic clearance at 1 uM preincubated for 10 mins followed by NADPH addition and measured for 60 mins by LC-MS/MS analysis. Type of data set: ADME, Microsome. Conditions: read-out: CLH.
Data set [5] addresses T1, Serine/threonine-protein kinase LATS2 (Homo sapiens, UniProt Q9NRM7).
T1 sequence (Q9NRM7 whole entry): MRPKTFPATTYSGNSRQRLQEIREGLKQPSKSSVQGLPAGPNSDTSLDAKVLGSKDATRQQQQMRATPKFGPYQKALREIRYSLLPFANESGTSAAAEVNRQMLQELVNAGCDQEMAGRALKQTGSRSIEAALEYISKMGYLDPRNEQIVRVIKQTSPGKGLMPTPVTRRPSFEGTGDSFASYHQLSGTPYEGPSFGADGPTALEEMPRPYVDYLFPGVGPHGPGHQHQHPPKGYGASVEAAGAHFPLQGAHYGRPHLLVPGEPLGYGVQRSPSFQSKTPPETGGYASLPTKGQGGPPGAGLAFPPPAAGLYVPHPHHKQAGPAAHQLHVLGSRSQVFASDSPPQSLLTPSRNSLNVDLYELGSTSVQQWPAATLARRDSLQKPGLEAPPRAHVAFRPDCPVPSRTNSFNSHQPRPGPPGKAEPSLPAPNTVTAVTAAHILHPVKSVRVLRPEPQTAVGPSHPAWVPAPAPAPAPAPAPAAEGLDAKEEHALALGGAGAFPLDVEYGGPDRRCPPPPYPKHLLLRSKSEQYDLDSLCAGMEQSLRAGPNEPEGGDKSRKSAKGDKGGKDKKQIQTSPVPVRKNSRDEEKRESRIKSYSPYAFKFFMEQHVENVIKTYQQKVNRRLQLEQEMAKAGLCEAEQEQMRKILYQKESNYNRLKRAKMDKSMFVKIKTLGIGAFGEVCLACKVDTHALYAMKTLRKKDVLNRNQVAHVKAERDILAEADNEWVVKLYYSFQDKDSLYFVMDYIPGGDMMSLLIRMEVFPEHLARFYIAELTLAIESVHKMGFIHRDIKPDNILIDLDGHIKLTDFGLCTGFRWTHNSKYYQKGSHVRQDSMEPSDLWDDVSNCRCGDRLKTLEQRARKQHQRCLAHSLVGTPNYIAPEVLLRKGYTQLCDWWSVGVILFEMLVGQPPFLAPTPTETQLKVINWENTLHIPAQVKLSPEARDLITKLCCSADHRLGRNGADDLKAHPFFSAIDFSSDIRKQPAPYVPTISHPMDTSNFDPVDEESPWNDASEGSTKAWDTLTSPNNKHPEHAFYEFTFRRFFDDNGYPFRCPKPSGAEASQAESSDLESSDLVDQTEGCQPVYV
Briefly: Binding affinity to LATS2 (unknown origin) assessed as dissociation constant by competitive binding assay.

In data set [6] the target is Dual specificity tyrosine-phosphorylation-regulated kinase 1B (Homo sapiens, UniProt Q9Y463). Briefly: Binding affinity to DYRK1B (unknown origin) assessed as dissociation constant by competitive binding assay.
Dual specificity tyrosine-phosphorylation-regulated kinase 1B, sequence (Q9Y463 whole entry): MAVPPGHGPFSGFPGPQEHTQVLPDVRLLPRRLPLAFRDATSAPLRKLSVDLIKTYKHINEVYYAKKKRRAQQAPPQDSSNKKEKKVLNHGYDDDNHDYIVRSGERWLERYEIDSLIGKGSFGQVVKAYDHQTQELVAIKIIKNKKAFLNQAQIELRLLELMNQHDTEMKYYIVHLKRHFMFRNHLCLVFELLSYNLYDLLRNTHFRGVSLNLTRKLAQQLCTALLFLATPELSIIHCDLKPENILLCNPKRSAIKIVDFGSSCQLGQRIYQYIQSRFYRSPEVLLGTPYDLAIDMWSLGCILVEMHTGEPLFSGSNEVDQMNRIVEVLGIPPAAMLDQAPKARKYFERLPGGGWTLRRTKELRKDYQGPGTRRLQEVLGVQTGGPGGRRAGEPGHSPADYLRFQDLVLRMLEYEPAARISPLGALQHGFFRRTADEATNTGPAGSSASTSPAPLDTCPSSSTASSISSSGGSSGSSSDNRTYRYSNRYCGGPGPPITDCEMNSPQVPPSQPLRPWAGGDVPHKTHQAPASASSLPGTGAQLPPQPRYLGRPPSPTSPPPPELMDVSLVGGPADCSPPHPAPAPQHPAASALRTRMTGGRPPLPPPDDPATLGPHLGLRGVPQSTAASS
For data set [7], the target named is Glycogen synthase kinase-3 alpha (Homo sapiens, UniProt P49840). The experiment in a line: Binding affinity to GSK3A (unknown origin) assessed as dissociation constant by competitive binding assay.
Glycogen synthase kinase-3 alpha, sequence (P49840 whole entry): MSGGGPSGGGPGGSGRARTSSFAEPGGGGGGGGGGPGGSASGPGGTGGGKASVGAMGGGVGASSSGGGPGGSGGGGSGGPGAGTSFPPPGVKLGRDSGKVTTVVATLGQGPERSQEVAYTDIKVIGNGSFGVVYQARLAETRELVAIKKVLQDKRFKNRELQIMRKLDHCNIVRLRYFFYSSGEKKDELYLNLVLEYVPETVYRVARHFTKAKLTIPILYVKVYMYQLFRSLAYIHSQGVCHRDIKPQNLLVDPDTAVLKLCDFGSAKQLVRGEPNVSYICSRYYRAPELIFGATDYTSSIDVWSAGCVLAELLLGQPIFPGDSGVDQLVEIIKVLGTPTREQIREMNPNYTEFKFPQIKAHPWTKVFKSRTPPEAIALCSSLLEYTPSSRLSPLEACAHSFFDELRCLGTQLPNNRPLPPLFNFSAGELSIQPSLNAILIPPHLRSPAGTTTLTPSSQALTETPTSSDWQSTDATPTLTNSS
In data set [8] the target is Glycogen synthase kinase-3 beta (Homo sapiens, UniProt P49841).
Glycogen synthase kinase-3 beta, sequence (P49841 whole entry): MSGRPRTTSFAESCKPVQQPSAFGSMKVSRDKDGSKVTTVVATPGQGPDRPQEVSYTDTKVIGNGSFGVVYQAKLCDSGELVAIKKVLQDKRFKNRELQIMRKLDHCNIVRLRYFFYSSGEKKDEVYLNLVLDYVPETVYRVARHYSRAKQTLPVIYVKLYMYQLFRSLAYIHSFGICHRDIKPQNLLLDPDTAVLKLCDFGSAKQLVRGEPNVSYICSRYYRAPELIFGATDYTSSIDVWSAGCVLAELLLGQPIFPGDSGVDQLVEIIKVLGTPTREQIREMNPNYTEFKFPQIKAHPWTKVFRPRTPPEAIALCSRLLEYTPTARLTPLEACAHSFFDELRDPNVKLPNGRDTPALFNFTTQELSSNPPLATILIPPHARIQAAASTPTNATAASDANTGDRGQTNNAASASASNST
Description: Binding affinity to GSK3B (unknown origin) assessed as dissociation constant by competitive binding assay
For data set [9], the target named is Dual specificity protein kinase CLK2 (Homo sapiens, UniProt P49760). Briefly: Binding affinity to CLK2 (unknown origin) assessed as dissociation constant by competitive binding assay.
Dual specificity protein kinase CLK2, sequence (P49760 whole entry): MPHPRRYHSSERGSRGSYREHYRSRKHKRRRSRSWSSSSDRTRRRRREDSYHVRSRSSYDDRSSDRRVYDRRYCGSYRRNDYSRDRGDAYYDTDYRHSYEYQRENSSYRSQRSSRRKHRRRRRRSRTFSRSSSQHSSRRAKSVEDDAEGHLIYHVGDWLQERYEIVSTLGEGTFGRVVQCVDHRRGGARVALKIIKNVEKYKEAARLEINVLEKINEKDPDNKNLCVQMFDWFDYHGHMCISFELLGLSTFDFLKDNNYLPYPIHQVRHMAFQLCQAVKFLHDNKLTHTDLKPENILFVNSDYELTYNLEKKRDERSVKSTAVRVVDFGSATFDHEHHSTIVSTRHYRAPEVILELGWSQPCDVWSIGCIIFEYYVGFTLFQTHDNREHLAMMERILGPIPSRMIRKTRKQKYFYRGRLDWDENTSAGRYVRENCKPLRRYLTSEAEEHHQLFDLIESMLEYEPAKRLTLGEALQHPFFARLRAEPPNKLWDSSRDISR
Data set [10] in a line: Volume of distribution in CD-1 mouse at 5 mg/kg, po or 1 mg/kg, iv administered as single dose and measured for 24 hrs by LC-MS/MS analysis. It counts as ADME, organism-based. Particulars: in vivo.
The target in data set [11] is Dual specificity protein kinase CLK1 (Homo sapiens, UniProt P49759). Briefly: Binding affinity to CLK1 (unknown origin) assessed as dissociation constant by competitive binding assay.
Dual specificity protein kinase CLK1, sequence (P49759 whole entry): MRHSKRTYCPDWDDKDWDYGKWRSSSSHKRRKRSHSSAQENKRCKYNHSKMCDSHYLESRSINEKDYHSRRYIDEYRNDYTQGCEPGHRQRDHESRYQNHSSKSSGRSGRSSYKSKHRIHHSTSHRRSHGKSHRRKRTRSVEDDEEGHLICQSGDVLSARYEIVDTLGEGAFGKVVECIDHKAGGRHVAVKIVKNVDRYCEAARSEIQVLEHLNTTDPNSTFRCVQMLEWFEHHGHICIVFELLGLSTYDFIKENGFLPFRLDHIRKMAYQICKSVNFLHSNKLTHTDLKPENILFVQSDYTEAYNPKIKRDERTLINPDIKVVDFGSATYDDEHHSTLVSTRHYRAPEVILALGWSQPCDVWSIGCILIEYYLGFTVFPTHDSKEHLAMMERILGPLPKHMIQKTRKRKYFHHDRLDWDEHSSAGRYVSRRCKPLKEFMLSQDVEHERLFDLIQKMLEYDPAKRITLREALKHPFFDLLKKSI
Data set [12] concerns the target Phosphatidylinositol 3-kinase catalytic subunit type 3 (Homo sapiens, UniProt Q8NEB9). The experiment in a line: Binding affinity to VPS34 (unknown origin) assessed as dissociation constant by competitive binding assay.
Data set [13] in a line: Bioavailability in CD-1 mouse at 5 mg/kg, po or 1 mg/kg, iv administered as single dose and measured for 24 hrs by LC-MS/MS analysis. It counts as ADME, organism-based. Conditions: in vivo.
In data set [14] the test system is MV4-11. The experiment in a line: Antitumor activity against human MV4-11 cells xenografted in BALB/c nude mouse assessed as tumor growth inhibition at 60 mg/kg, po qd administered by gavage for 17 days and measured 3 times per week by caliper method relative to control. Type of data set: functional. Particulars: MV4-11, 408 h, time 17 day, read-out: TGI.

Phosphatidylinositol 3-kinase catalytic subunit type 3, sequence (Q8NEB9 whole entry): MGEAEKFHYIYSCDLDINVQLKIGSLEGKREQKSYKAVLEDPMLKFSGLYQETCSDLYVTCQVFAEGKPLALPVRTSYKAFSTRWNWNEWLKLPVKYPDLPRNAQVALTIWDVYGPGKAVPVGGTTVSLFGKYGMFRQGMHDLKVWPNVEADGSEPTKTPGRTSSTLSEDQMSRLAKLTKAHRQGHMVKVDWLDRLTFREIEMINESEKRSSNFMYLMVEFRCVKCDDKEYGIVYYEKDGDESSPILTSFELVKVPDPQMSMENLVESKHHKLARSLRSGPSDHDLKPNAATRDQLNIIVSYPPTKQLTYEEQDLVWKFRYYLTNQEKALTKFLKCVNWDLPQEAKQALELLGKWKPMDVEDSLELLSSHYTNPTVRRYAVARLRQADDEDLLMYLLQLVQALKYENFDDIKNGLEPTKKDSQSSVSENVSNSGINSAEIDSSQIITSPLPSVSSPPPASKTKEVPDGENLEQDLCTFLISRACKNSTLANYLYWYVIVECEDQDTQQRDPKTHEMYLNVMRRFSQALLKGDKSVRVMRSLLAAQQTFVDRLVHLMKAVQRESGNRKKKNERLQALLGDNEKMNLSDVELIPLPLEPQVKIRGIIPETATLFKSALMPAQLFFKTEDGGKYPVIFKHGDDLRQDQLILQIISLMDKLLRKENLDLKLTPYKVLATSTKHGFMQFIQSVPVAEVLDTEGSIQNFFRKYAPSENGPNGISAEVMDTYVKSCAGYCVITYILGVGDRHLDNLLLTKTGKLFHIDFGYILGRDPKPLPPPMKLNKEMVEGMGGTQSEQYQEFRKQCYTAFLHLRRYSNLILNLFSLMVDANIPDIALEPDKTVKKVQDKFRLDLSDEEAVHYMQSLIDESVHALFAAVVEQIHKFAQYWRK

On to `Cc1n[nH]c2ccc(-c3nnc4n3[C@H](c3ccc(Cl)cc3)CCC4)cc12`, for which the CLint scaled at 1 µM amounted to 843 mL/min/kg in [1] and 87.1 mL/min/kg in data set [2]. Also, at CDK8/Cyclin C, the pIC50 was 9.43.

As for `Cc1n[nH]c2ccc(-c3nnc4n3[C@H](c3ccc(Cl)cc3)CN(C)C4)cc12`, the pIC50 with MV4-11 [3] was 8.21; on CDK8/Cyclin C, 9.08.

For the compound `Cc1n[nH]c2ccc(-c3nnc(C)n3Cc3ccc(C#N)cc3)cc12`, at CDK8/Cyclin C, the pIC50 is 8.21.

As to `Cc1n[nH]c2ccc(-c3nnc(C)n3Cc3ccc(Cl)cc3)nc12`, the pIC50 at CDK8/Cyclin C was 8.48.

Regarding `Cc1n[nH]c2ccc(-c3nnc(C)n3Cc3ccc(Cl)cn3)cc12`, the negative-log IC50 (pIC50) at CDK8/Cyclin C was 7.10.

Regarding `Cc1n[nH]c2ccc(-c3nnc(C)n3Cc3ccc(Cl)cc3)cc12`, the pIC50 in the data set with MV4-11 [3] is 8.07; at CDK8/Cyclin C, 9.31. Moreover, the results for the CLint scaled at 1 µM in data set [4], in data set [1] and in data set [2] were 54.4 mL/min/kg, 342 mL/min/kg and 12.2 mL/min/kg, respectively. For the same compound, the pKd in [5] was 7.42; in [6] it was 5.85; in data set [7], 6.92; in [8], 7.25; in data set [9], 7.44; in data set [11], 7.37. The pKd in data set [12] was 5.74. Also, the Vd in [10] is 0.8 L/kg. In addition, the bioavailability in data set [13] came out at 82.1%.

For the compound `Cc1n[nH]c2ccc(-c3nnc4n3[C@H](c3ccc(Cl)cc3)CC4)cc12`, the pIC50 with MV4-11 [3] was 8.62; on CDK8/Cyclin C, 9.40. The CLint scaled at 1 µM is 151 mL/min/kg in data set [4], 540 mL/min/kg in data set [1] and 23.1 mL/min/kg in data set [2]. Further, the pKd in data set [5] was 7.74; in data set [6] it was 6.48; in data set [7], 8.37; in data set [9] it was 8.68; in data set [11], 7.82; in [12], 7.17. In addition, in [10], the Vd was 0.7 L/kg. In data set [13], this compound displayed a bioavailability of 63.7%.

Take `Cc1n[nH]c2ccc(-c3nnc4n3[C@H](c3ccc(Cl)cc3)COC4)cc12`: the pIC50 in the data set with MV4-11 [3] is 8.12; on CDK8/Cyclin C, 9.20. Besides, the CLint scaled at 1 µM in [4] was found to be 118 mL/min/kg; in [1] it was 720 mL/min/kg; in [2], 92 mL/min/kg. In data set [10], the Vd is 1.2 L/kg. Moreover, the bioavailability in data set [13] turned out to be 19.4%.

As to `CNc1n[nH]c2ncc(-c3nnc4n3C(c3ccc(Cl)cc3)CC4)cc12` (racemic), the pIC50 at CDK8/Cyclin C was 7.45.

Take `Cc1n[nH]c2ccc(-c3nnc4n3[C@H](c3ccc(Cl)cc3)CC4)nc12`: the pIC50 with MV4-11 [3] is 7.93; at CDK8/Cyclin C, 9.05. In addition, the CLint scaled at 1 µM in data set [4] was 270 mL/min/kg; in data set [1], 339 mL/min/kg; in data set [2] it was < 8.6 mL/min/kg. Besides, the pKd in [5] is 6.34; in data set [6] it was 5.89; in data set [7], 7.13; in [8] it was 7.41; in data set [9], 7.19; in data set [11] it was 7.15. Also, the pKd in data set [12] was 7.70. In data set [10], this compound displayed a Vd of 0.4 L/kg. The compound also had a bioavailability in [13] of 63.7%.

As for `Cc1n[nH]c2ccc(-c3nnc(C)n3C(C)c3ccc(Cl)cc3)cc12` (stereo not given), the pIC50 at CDK8/Cyclin C was 6.56.

As to `Cc1n[nH]c2ccc(-c3nnn(C)c3Cc3ccc(Cl)cc3)cc12`, the pIC50 is 8.32 in the data set on MV4-11 [3] and 9.40 on CDK8/Cyclin C. Besides, the CLint scaled at 1 µM in data set [4] was 385 mL/min/kg; in data set [1], 823 mL/min/kg; in data set [2], 66.1 mL/min/kg.

For `Cc1nnc(-c2ccc3[nH]nc(Cl)c3c2)n1Cc1ccc(Cl)cc1`, the pIC50 in the data set with MV4-11 [3] is 7.14; at CDK8/Cyclin C, 9.06. The CLint scaled at 1 µM in data set [4] worked out at 54.5 mL/min/kg; in [1] it was 273 mL/min/kg; in [2], 10.8 mL/min/kg. Further, the Vd in data set [10] was determined as 2.7 L/kg. In data set [13], this compound gave a bioavailability of 50.8%.

With `COc1nnc(-c2ccc3[nH]nc(C)c3c2)n1Cc1ccc(Cl)cc1`, the pIC50 at CDK8/Cyclin C was 7.08.

Turning to `Cc1n[nH]c2ccc(-c3cnn(C)c3Cc3ccc(Cl)cc3)cc12`, the CLint scaled at 1 µM is 536 mL/min/kg in data set [1] and 59.2 mL/min/kg in data set [2]. Moreover, the pIC50 at CDK8/Cyclin C was 9.15.

As for `Cc1c(Br)c(Br)c2c3c1nc(N1CCNCC1)n3CCC2` [SEL-120 FREE BASE], in the data set with MV4-11 [14], the inhibition in vivo at 60 mg/kg came to 55.6%. Also, the pIC50 was 6.60 in the data set on MV4-11 [3] and 7.85 at CDK8/Cyclin C.

Consider `Cc1n[nH]c2ccc(-c3nnc4n3[C@H](c3ccc(Cl)cc3)CNC4)cc12`, for which the CLint scaled at 1 µM in data set [1] came out at 1310 mL/min/kg; in [2] it was 64.9 mL/min/kg. The pIC50 on CDK8/Cyclin C is 9.32.

Consider `Cc1n[nH]c2ccc(-c3nnc(O)n3Cc3ccc(Cl)cc3)cc12`, for which the pIC50 at CDK8/Cyclin C was < 6.00.

As to `Cc1n[nH]c2ccc(-c3ncc(C)n3Cc3ccc(Cl)cc3)cc12`, the pIC50 with MV4-11 [3] was 6.43; on CDK8/Cyclin C, 8.14.

In the case of `CNc1n[nH]c2ccc(-c3nnc4n3C(c3ccc(Cl)cc3)CC4)cc12` (racemic), the pIC50 on CDK8/Cyclin C is 8.27.

`Cc1n[nH]c2ccc(-c3nnc(C(F)(F)F)n3Cc3ccc(Cl)cc3)cc12`: at CDK8/Cyclin C, the pIC50 is 8.32.

Turning to `Cc1n[nH]c2ncc(-c3nnc(C)n3Cc3ccc(Cl)cc3)cc12`, at CDK8/Cyclin C, the pIC50 was 7.77.

In the case of `Cc1n[nH]c2ncc(-c3nnc4n3[C@H](c3ccc(Cl)cc3)CC4)cc12`, the pIC50 with MV4-11 [3] was 7.61; on CDK8/Cyclin C, 8.82. Further, the CLint scaled at 1 µM in data set [4] was 104 mL/min/kg; in data set [1], 368 mL/min/kg; in data set [2], < 8.6 mL/min/kg. Also, the pKd was 6.14 in data set [5]; 5.68 in [6]; 8.19 in [7]; 8.42 in [8]; 7.09 in data set [9]; 7.07 in data set [11]. The pKd in [12] is 5.54. In data set [10], this compound gave a Vd of 0.7 L/kg. In data set [13], this compound displayed a bioavailability of 63.4%.
